{"source": "patent US20110020480A1", "about": "“USE OF BENZOXAZINOIDS-CONTAINING CEREAL GRAIN PRODUCTS FOR HEALTH-IMPROVING PURPOSES” (priority 2008, published 2011)", "origin": "cited, not measured here", "key": {"[1]": {"details": "daily dose"}}}
{"compound": "COc1ccc2[nH]c(=O)oc2c1", "note": "[6-MBOA, 6-methoxy-benzoxazolin-2-one]", "values": [{"measurement": "cumulative daily dose for obtaining appetite suppression", "setting": "overweight women", "value": 15, "unit": "µg"}, {"measurement": "effect on depression or mood", "setting": "human males", "value": "significant positive effect"}, {"measurement": "therapeutic dose for treating depressive states of mind", "setting": "[1]", "value": "approx. 15 mg daily"}]}
